Source: patent publication EP1355153A1, “Screening method for agents against cardiovascular diseases” (NAMAXX GENOMICS GMBH, priority 2002, dated 2003)

System: heart of the chick embryo
Test: Relative stroke volume of the chick embryo heart by video microscopy (decrease by isoproterenol, rescue by metoprolol)
Assay type: in vivo, chicken
Conditions: for % remaining stroke volume: 50 µL isoproterenol 1 mM topically, followed by 20 µL metoprolol 15 mM or water-dimethylsulfoxide mix (isoproterenol alone), after 2 minutes at 22°C; for reduction of the stroke volume: isoproterenol alone or applied with metoprolol
Description: Fertilized Bovans Goldline brown chicken eggs (12 hrs after laying, kept at 18°C) were incubated at 38°C and 45 % humidity during 72 hrs (Motorbruter 126-EM, Bruja). The eggshell was then broken and the egg white, the yolk and the embryo were removed and placed in a Petri dish (Greiner, 9.4 cm diameter). This Petri dish was placed in a bigger Petri dish (Greiner, 14 cm diameter) containing water and an incubation is performed at 38°C and 45 % humidity for 24 hrs or 48 hrs. The relative stroke volume of the heart of the chick embryo was then estimated by video microscopy using a binocular (SZX-ZB9, Olympus), a CCD camera (F-View, Soft Imaging Systems) and an image analysis software (AnalySIS Auto Software, Soft Imaging Systems). The beating heart of the embryo was filmed and the grey density of the heart area under systole was subtracted from the density of the heart area under diastole. By performing said subtraction, the so-called "relative stroke volume" is obtained, which represents a relative value instead of a volume.
50 µL of a isoproterenol (Sigma) solution (1mM, water) was then topically applied on the surface of the embryo, followed by 20 µL metoprolol (Sigma) solution (15 mM, Vol-90 % water, 10 % dimethylsulfoxide). Metoprolol is a marketed drug for human use against heart failure (M. Andrejak and M. Slama, Presse Med. 27:2025-30 (1998)). After 2 minutes at 22°C, the heart was monitored and the relative stroke volume was measured. The same experiment was performed by replacing the metoprolol solution by a water-dimethylsulfoxide mix (90 %-10 %) in order to investigate the effect of isoproterenol alone. Controls were performed with untreated embryos. The test groups of the 96 hrs old embryos (Table 1) comprise seven embryos each, while the test groups of the 120 hrs old embryos (Table 2) comprise five embryos each.

[1] = 96 hrs old embryos, after 2 minutes
[2] = 120 hrs old embryos, after 2 minutes incubation

COCCc1ccc(OCC(O)CNC(C)C)cc1 (centres unmarked) [metoprolol]
% remaining stroke volume (96 hrs old embryos (n=7)): 57,0%
reduction of the stroke volume [1]: 43%
% remaining stroke volume (120 hrs old embryos (n=5)): 58,8%
reduction of the stroke volume [2]: 41%

CC(C)NCC(O)c1ccc(O)c(O)c1 (centres unmarked) [Isoproterenol, isoproterenol]
% remaining stroke volume (96 hrs old embryos (n=7)): 25,5%
reduction of the stroke volume [1]: 75%
% remaining stroke volume (120 hrs old embryos (n=5)): 27,2%
reduction of the stroke volume [2]: 72%
